According to patent publication US20040152903A1, “6-chloro-3-pyridylmethylpropylamine derivatives, preparation process thereof and bactericides” (priority 2004, published 2004):

How the values were obtained:
Microdochium nivale = test: Antifungal activity test (PDA plate, hypha extension inhibition); type: cell-based; details: 3.2 ppm in PDA culture medium
Procedure: (§1) (Antifungal Activity Test against Various Pathogenic Fungi) For each of the compounds I-1 to 27 of the present invention and the comparative compounds (a) to (d), (m-1) and (m-3), 20 mg was weighed and dissolved in 2 ml of dimethylsulfoxide, and a double dilution row in 10 steps was prepared by further using dimethylsulfoxide. A 0.6 ml portion of these solutions was each added to 60 ml of a PDA culture medium (potato-dextrose-agar culture medium) at about 60° C., they were well mixed in a 100 ml Erlenmeyer flask, the solution was poured into a schale and was solidified, the plate culture media containing the compounds according to the present invention with final concentrations of 100, 50.0, 25.0, 12.5, 6.3, 3.2, 1.6, 0.8, 0.4 and 0.2 mg/l were prepared. On the other hand, the specimen bacteria cultured on the plate culture media beforehand was punched by a 4 mm diameter cork borer, and was inoculated on the plate culture media containing the aforementioned chemicals. After the inoculation, the bacteria were cultured at the optimum growth temperature of each bacterium for 1 to 7 days (for this optimum growth temperature, LIST OF CULTURES 1996 Microorganisms 10th edition published by Fermentation Research Institute (Foundation) can be referred to.), and the growth of the bacteria was measured by the diameter of a colony. […]

[1] = tested on: Pseudocercosporella herpotrichoides; test: as above; type: cell-based; details: 25 ppm in PDA culture medium
Procedure: as §1

cucumber powdery mildew = test: Test of control effect on cucumber powdery mildew; type: in vivo; details: wettable powder 100 mg/l, 100 liters/10 a, cucumber (Sagamihanpakufushinari), examined 9th to 14th day after inoculation
Procedure: (Test of Control Effect on Cucumber Powdery Mildew) The wettable powders formulated by using each of the compounds I-1 to 27 according to the present invention and the comparative compounds (a) to (d), (m-1) and (m-3) were each diluted and suspended with water to a predetermined concentration (100 mg/l), the suspension was sprinkled over the first to the second leaf period cucumbers (variety: “[…]”) cultivated by using a square plastic pot (size: 6.4 cm×6.4 cm) in a rate of 100 liters/10 a (ares). After the sprinkled leaves were air-dried, the spores were inoculated over the leaves by sprinkling the same with a brush from an infected leaf, a disease was contracted in a glass house (temperature: 20 to 24° C., relative humidity: 20 to 70 RH). On the 9th to 14th day after the inoculation, the infection degree was examined according to the following scale and the control value of each compound was calculated by the following calculation equation 2: (Examination Scale) [table]

wheat powdery mildew = test: Permeable mobility fungicidal effect test in leaf section of wheat powdery mildew; type: in vivo; details: length of non-contracted area relative to compound (m-2); 200 mg/l, 0.5 μl applied to wheat leaf (Abukumawase)
Procedure: (Permeable Mobility Fungicidal Effect Test in Leaf Section of Wheat Powdery Mildew) In the test example 4, permeable mobility fungicidal effect test was performed on the leaf section of wheat powdery mildew with regard to the compounds I-1 to 27 according to the present invention and the comparative compounds (a) to (d), and (m-1) to (m-3) with the method described later. <Test Method> The compound in the form of a wettable powder obtained by Formulation 2 or the like was diluted and suspended with water to a predetermined concentration (200 mg/l), and 0.5 μl of the suspension was applied to a 2 to 3 cm leaf portion from the root of the three leaves of the 4th to 4.5th leaf period wheat (variety: Abukumawase) cultured by using a square plastic pot (size: 6.4 cm×6.4 cm). After these wheat leaves were subject to still standing in a glass house (temperature: 20 to 24° C., relative humidity: 20 to 70 RH) for one day, the spores of wheat powdery mildew were inoculated over the leaves by sprinkling the same with a brush from an infected leaf, a disease was contracted in the same glass house. The length of a non-contracted area generated from the applied portion to the direction of the leaf top was measured, and a relative mobility to the compound (m-2) was calculated with the following calculation […] by using the comparative compound (m-2) as a standard compound. Relative mobility=(Length of non-contracted area in each chemical section (cm)/Length of non-contracted area of compound (m-2) (cm)) (Equation 4)

Compound	Growth Inhibition M.n (3.2) (Microdochium nivale)	Growth Inhibition P.h (25) [1]	Control Value (cucumber powdery mildew)	Relative Mobility (wheat powdery mildew)
CC(Cc1ccc(C(F)(F)F)c(F)c1F)CN(C)Cc1ccc(Cl)nc1 (centres unmarked) [Compound I-10]	4 (Hypha extension inhibition rate of from 70% to less than 90%)	5 (Hypha extension inhibition rate of 90% or more)	100	3
CC(Cc1ccc2c(c1)OC(F)(F)O2)CN(C)Cc1ccc(Cl)nc1 (centres unmarked) [Compound I-24]	4 (Hypha extension inhibition rate of from 70% to less than 90%)	5 (Hypha extension inhibition rate of 90% or more)	100	6
